biological target: T1, human Arginine Vasopressin Receptor 1b (AVPR1b) (Homo sapiens, UniProt P47901); test: Vasopressin V1b receptor antagonist assay (FLIPR calcium, CHO-AVPR1b cells); format: cell-based
T1 construct: expressed in transfected cells; host or cells: CHO (CHO-AVPR1b, kept under G418 selection)
T1 sequence (P47901 1-424): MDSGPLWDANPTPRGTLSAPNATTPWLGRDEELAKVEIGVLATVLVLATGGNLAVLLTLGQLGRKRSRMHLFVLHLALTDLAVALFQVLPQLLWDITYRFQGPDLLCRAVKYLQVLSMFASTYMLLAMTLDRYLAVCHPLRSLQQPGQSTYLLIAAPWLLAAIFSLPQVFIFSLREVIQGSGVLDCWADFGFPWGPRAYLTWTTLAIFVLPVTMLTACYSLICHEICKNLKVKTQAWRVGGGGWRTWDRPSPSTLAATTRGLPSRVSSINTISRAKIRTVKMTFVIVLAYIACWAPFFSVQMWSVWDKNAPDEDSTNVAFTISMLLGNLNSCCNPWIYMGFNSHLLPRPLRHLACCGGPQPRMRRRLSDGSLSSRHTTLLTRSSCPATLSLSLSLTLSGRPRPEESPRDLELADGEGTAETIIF
Protocol: The purpose of the assay was to determine the inhibitory effect of synthesized compounds on the Vasopressin V1b receptor. The assay was performed in Chinese Hamster Ovary (CHO) cells expressing the human Arginine Vasopressin Receptor 1b (AVPR1b). Arginine Vasopressin (AVP) evokes an increase in intracellular calcium in CHO-AVPR1b cells which is measured in a fluorescence assay on the FLIPR^TETRA using calcium sensitive dyes. Test compounds were assessed for their ability to affect the magnitude of the response to AVP, with antagonists showing a concentration-dependent reduction in the AVP-mediated fluorescence.
CHO-AVPR1b cells were maintained in routine culture in T175 Flasks at 37° C., 5% CO2. The growth medium consisted of Ham's F12 media supplemented with 10% v/v fetal bovine serum, 1× non-essential amino acids, and 0.4 mg/ml Geneticin G418.
Cells were harvested from T175 flasks when they were 80-90% confluent by first washing the cell monolayer with PBS and then dissociated using trypsin 0.05%/EDTA (3 mL for a T175 Flask). The flasks were incubated at room temperature until the cells detached. To the cell suspension, 10 ml of growth media was added and the cell density determined using the Vi-Cell automated cell counter. The cells were spun at 1000 rpm for 3 minutes, then the supernatant was carefully removed and discarded. The cell pellet was re-suspended at 6.0e^5 cells/ml in growth media. 25 μL of cells in growth media was dispensed into each well (15,000 cells per well) of a poly-D-lysine coated black, clear bottomed, 384-well plate. The plates were incubated at 37° C., 5% CO2 overnight.
At the start of each assay day, the potency of AVP was assessed and an EC80 concentration determined for subsequent compound profiling. Assays were performed using a two-step addition protocol on the FLIPR^TETRA; first addition of 5 μl of control or test compound at 10× final in assay buffer with 15 min incubation at 37° C., 5% CO2 followed by 10 μl of AVP at 6× final concentration in assay buffer. Changes in fluorescence were monitored for 3 min after both additions on the FLIPR^TETRA using 470-495 nm excitation and 515-575 nm emission wavelengths. The assay buffer consisted of HBSS (+Ca/+Mg) supplemented with 20 mM HEPES, and for the preparation of the AVP agonist only, 0.1% w/v bovine serum albumin. The assay was initiated by the removal of growth media from the cells and replacement with 45 μl of Calcium-6 dye (Molecular Devices) prepared at 1× in assay buffer. Cells were loaded with dye for 60-90 min at 37° C., 5% CO2 before initiation of the FLIPR^TETRA protocol. […] For compound profiling, test compounds were first serially diluted in DMSO (10-point curve, 1:3 dilutions) then diluted 33.3-fold in assay buffer prior to addition to the dye loaded cells on the FLIPR^TETRA. At the end of the incubation period 10 μl of AVP in assay buffer containing 0.1% BSA was added at the previously determined EC80 concentration.
In-plate controls for the assay included a Nelivaptan concentration-response curve as the reference V1b antagonist and an AVP concentration-response curve to confirm the reproducibility of the EC80 used for the compound challenge.

Row | Structure (SMILES) | IC50
1 | CC1COc2cc(Cl)ccc2N1C(=O)N1CC2(C1)CN(c1ncccn1)C2 (single isomer, unassigned) [1-83-B, (7-chloro-3-methyl-2,3-dihydro-4H-benzo[b][1,4]oxazin-4-yl)(6-(pyrimidin-2-yl)-2,6-diazaspiro[3.3]heptan-2-yl)methanone] | ≥ 1000 nM
2 | CC1COc2cc(F)ccc2N1C(=O)N1CC2(C1)CN(c1noc3ccccc13)C2 (single isomer, unassigned) [4-3-B] | ≥ 1000 nM
3 | CC1COc2cc(Cl)ccc2N1C(=O)N1CC2(C1)CN(c1cccnn1)C2 (single isomer, unassigned) [9-1-A] | ≥ 1000 nM
4 | CC1COc2cc(Cl)ccc2N1C(=O)N1CC2(C1)CN(c1cccnn1)C2 (single isomer, unassigned) [9-1-B] | ≥ 1000 nM
5 | CC1CN(C(=O)N2CC3(C2)CN(c2ccc(F)cn2)C3)c2ccc(Cl)cc2O1 (single isomer, unassigned) [9-3-A] | ≥ 1000 nM
6 | CC1CN(C(=O)N2CC3(C2)CN(c2ccc(F)cn2)C3)c2ccc(F)cc2O1 (single isomer, unassigned) [9-4-B] | ≥ 1000 nM
7 | CC1COc2cc(F)ccc2N1C(=O)N1CC2(C1)CN(c1ccc(F)cn1)C2 (single isomer, unassigned) [12-1-B] | ≥ 1000 nM
8 | O=C(N1CC2(C1)CN(c1ccc(F)cn1)C2)N1CCC(O)c2cc(Cl)ccc21 (single isomer, unassigned) [13-1-A] | ≥ 1000 nM
9 | O=C(N1CC2(C1)CN(c1ccccn1)C2)N1CCC(O)c2cc(Cl)ccc21 (single isomer, unassigned) [13-2-A] | ≥ 1000 nM
10 | O=C(N1CC2(C1)CN(c1ccccn1)C2)N1CCC(O)c2cc(Cl)ccc21 (single isomer, unassigned) [13-2-B] | ≥ 1000 nM
11 | O=C(N1CC2(C1)CN(c1cnccn1)C2)N1CCC(O)c2cc(Cl)ccc21 (single isomer, unassigned) [13-3-A] | ≥ 1000 nM
12 | CC1COc2cc(Cl)ccc2N1C(=O)N1CC2(C1)CN(c1noc3cccnc13)C2 (single isomer, unassigned) [18-3-B] | ≥ 1000 nM
13 | CC1COc2cc(F)ccc2N1C(=O)N1CC2(C1)CN(c1ncc(F)cn1)C2 (single isomer, unassigned) [18-4-B] | ≥ 1000 nM
14 | CC1COc2cc(F)c(F)cc2N1C(=O)N1CC2(C1)CN(c1ncccn1)C2 (single isomer, unassigned) [19-1-B] | ≥ 1000 nM
15 | CC1COc2cc(Cl)c(F)cc2N1C(=O)N1CC2(C1)CN(c1ncccn1)C2 (single isomer, unassigned) [19-2-B] | ≥ 1000 nM
16 | CC1COc2cc(F)c(F)cc2N1C(=O)N1CC2(C1)CN(c1cccnn1)C2 (single isomer, unassigned) [19-3-B] | ≥ 1000 nM
17 | CC1COc2cc(Cl)c(F)cc2N1C(=O)N1CC2(C1)CN(c1cccnn1)C2 (single isomer, unassigned) [19-4-A] | ≥ 1000 nM
18 | CC1COc2cc(F)c(F)cc2N1C(=O)N1CC2(C1)CN(c1ccc(F)cn1)C2 (single isomer, unassigned) [19-5-B] | ≥ 1000 nM
19 | CC1COc2cc(Cl)ccc2N1C(=O)N1CC2(C1)CN(c1cccnc1)C2 (single isomer, unassigned) [20-1-B] | ≥ 1000 nM
20 | Cc1cncc(N2CC3(CN(C(=O)N4c5ccc(F)cc5OCC4C)C3)C2)n1 (single isomer, unassigned) [20-2-A] | ≥ 1000 nM
21 | Cc1cncc(N2CC3(CN(C(=O)N4c5ccc(F)cc5OCC4C)C3)C2)n1 (single isomer, unassigned) [20-2-B] | ≥ 1000 nM
22 | CC1COc2cc(F)ccc2N1C(=O)N1CC2(C1)CN(c1cc(C#N)ccn1)C2 (single isomer, unassigned) [20-3-B] | ≥ 1000 nM
23 | Cc1ccnc(N2CC3(CN(C(=O)N4c5ccc(F)cc5OCC4C)C3)C2)c1 (single isomer, unassigned) [20-4-B] | ≥ 1000 nM
24 | Cc1cnc(N2CC3(CN(C(=O)N4c5ccc(Cl)cc5OCC4C)C3)C2)cn1 (single isomer, unassigned) [20-5-B] | ≥ 1000 nM
25 | CC1COc2cc(Cl)ccc2N1C(=O)N1CC2(C1)CN(c1cc(C#N)ccn1)C2 (single isomer, unassigned) [20-6-B] | ≥ 1000 nM
26 | Cc1nc(N2CC3(CN(C(=O)N4c5ccc(Cl)cc5OCC4C)C3)C2)ncc1F (single isomer, unassigned) [20-7-B] | ≥ 1000 nM

Row | Structure (SMILES) | IC50
27 | COc1ccnc(N2CC3(CN(C(=O)N4c5ccc(Cl)cc5OCC4C)C3)C2)c1 (single isomer, unassigned) [20-8-B] | ≥ 1000 nM
28 | COc1ccnc(N2CC3(CN(C(=O)N4c5ccc(Cl)cc5OCC4C)C3)C2)n1 (single isomer, unassigned) [20-9-B] | ≥ 1000 nM
29 | Cc1nccnc1N1CC2(CN(C(=O)N3c4ccc(Cl)cc4OCC3C)C2)C1 (single isomer, unassigned) [20-10-A] | ≥ 1000 nM
30 | Cc1ccnc(N2CC3(CN(C(=O)N4c5ccc(Cl)cc5OCC4C)C3)C2)n1 (single isomer, unassigned) [20-12-B] | ≥ 1000 nM
31 | O=C(N1CC2(C1)CN(c1ncccn1)C2)N1CCOc2cc(Cl)ccc21 [1-4] | ≥ 1000 nM
32 | Cc1cccnc1N1CC2(CN(C(=O)N3CCOc4cc(Cl)ccc43)C2)C1 [1-5] | ≥ 1000 nM
33 | Cc1ccnc(N2CC3(CN(C(=O)N4CCOc5cc(Cl)ccc54)C3)C2)c1 [1-14] | ≥ 1000 nM
34 | COc1ccnc(N2CC3(CN(C(=O)N4CCOc5cc(Cl)ccc54)C3)C2)c1 [1-15] | ≥ 1000 nM
35 | O=C(N1CC2(C1)CN(c1ncccc1F)C2)N1CCc2cc(Cl)ccc21 [1-76] | ≥ 1000 nM
36 | O=C(N1CC2(C1)CN(c1ccccn1)C2)N1CCc2cc(Cl)ccc21 [1-77] | ≥ 1000 nM
37 | O=C(N1CC2(C1)CN(c1cccc(F)n1)C2)N1CCc2cc(Cl)ccc21 [1-78] | ≥ 1000 nM
38 | O=C(N1CC2(C1)CN(c1cc(F)ccn1)C2)N1CCc2cc(Cl)ccc21 [1-79] | ≥ 1000 nM
39 | O=C(N1CC2(C1)CN(c1cccnn1)C2)N1CCOc2cc(Cl)c(F)cc21 [1-81] | ≥ 1000 nM
40 | O=C(N1CC2(C1)CN(c1noc3ccccc13)C2)N1CCOc2cc(Cl)ccc21 [4-1, (6-(benzo[d]isoxazol-3-yl)-2,6-diazaspiro[3.3]heptan-2-yl)(7-chloro-2,3-dihydro-4H-benzo[b][1,4]oxazin-4-yl)methanone] | ≥ 1000 nM
41 | O=C(N1CC2(C1)CN(c1ncc(F)cn1)C2)N1CCOc2cc(Cl)ccc21 [4-2] | ≥ 1000 nM
42 | CC1COc2cc(F)ccc2N1C(=O)N1CC2(C1)CN(c1noc3ccccc13)C2 (stereo not drawn) [4-3] | ≥ 1000 nM
43 | Cc1nc(N2CC3(CN(C(=O)N4CCOc5cc(Cl)ccc54)C3)C2)ncc1F [6-1, (7-chloro-2,3-dihydro-4H-benzo[b][1,4]oxazin-4-yl)(6-(5-fluoro-4-methylpyrimidin-2-yl)-2,6-diazaspiro[3.3]heptan-2-yl)methanone] | ≥ 1000 nM
44 | O=C(N1CC2(C1)CN(c1ccccn1)C2)N1CCOc2cc(Cl)ccc21 [8-2] | ≥ 1000 nM
45 | O=C(N1CC2(C1)CN(c1cnccn1)C2)N1CCOc2cc(Cl)ccc21 [8-3] | ≥ 1000 nM
46 | O=C(N1CC2(C1)CN(c1ccc(F)cn1)C2)N1CCOCc2cc(Cl)ccc21 [8-4] | ≥ 1000 nM
47 | O=C(N1CC2(C1)CN(c1ccc(F)cn1)C2)N1CCc2cc(Cl)ccc21 [8-11] | ≥ 1000 nM
48 | O=C(N1CC2(C1)CN(c1ccccn1)C2)N1CCOCc2cc(Cl)ccc21 [8-12] | ≥ 1000 nM
49 | O=C(N1CC2(C1)CN(c1cnccn1)C2)N1CCOCc2cc(Cl)ccc21 [8-13] | ≥ 1000 nM
50 | O=C(N1CC2(C1)CN(c1cnccn1)C2)N1CCc2cc(Cl)ccc21 [8-14] | ≥ 1000 nM
51 | CC1Cc2cc(Cl)ccc2N1C(=O)N1CC2(C1)CN(c1ccc(F)cn1)C2 (stereo not drawn) [8-16] | ≥ 1000 nM

Source: patent US12152038B2, “Vasopressin receptor antagonists and products and methods related thereto” (Neumora Therapeutics, Inc., priority 2017, dated 2024)
